Like-named read-outs stand apart in the source and are kept apart here.
Tests used:
BRPF1 = molecular target: T1, BRPF1 (Homo sapiens, UniProt P55201); assay: biochemical
T1 sequence (P55201 1-1214): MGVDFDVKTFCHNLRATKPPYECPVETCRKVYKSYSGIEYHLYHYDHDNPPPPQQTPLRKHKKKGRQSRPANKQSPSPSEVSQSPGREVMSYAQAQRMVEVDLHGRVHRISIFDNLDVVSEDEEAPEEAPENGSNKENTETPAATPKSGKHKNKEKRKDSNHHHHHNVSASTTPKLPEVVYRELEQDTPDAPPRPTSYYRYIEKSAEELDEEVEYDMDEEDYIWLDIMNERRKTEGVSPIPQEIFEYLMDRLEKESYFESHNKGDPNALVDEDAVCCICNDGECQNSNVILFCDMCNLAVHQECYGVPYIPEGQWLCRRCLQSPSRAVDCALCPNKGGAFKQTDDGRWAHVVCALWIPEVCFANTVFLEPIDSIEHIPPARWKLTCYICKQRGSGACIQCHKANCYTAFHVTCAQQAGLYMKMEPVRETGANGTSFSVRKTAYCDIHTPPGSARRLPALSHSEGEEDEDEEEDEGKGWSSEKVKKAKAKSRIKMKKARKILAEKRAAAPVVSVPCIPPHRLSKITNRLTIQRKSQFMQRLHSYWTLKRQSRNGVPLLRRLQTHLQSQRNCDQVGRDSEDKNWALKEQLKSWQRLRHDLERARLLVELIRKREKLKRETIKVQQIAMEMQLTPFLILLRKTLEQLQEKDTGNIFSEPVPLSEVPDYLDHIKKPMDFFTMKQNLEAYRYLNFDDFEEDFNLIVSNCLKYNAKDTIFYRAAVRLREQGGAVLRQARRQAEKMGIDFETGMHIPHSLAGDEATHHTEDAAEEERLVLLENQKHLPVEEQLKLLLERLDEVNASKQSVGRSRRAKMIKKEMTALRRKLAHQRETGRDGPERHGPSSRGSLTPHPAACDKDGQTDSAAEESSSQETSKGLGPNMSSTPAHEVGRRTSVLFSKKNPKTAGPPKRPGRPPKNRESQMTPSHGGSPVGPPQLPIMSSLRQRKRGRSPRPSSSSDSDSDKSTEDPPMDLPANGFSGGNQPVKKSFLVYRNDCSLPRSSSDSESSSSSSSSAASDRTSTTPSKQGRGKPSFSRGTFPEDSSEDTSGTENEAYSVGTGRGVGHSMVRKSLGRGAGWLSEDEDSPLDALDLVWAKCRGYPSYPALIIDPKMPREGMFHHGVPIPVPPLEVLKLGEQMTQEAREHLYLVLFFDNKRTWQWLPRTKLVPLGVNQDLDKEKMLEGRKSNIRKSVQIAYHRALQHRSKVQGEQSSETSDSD

DRAK2 = molecular target: T2, DRAK2 (Homo sapiens, UniProt O94768); assay: biochemical
T2 sequence (O94768 1-372): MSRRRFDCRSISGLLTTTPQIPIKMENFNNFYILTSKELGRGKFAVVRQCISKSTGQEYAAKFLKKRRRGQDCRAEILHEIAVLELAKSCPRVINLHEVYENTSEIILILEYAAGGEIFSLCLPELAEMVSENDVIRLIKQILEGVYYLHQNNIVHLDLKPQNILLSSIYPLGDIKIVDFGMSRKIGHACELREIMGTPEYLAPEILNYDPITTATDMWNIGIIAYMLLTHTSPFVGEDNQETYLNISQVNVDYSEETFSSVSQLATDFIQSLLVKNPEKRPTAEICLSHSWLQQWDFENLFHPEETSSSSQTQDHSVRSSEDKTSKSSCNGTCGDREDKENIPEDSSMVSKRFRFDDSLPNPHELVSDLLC

MAP2K7 = molecular target: T3, MAP2K7 (Homo sapiens, UniProt O14733); assay: biochemical
T3 sequence (O14733 1-419): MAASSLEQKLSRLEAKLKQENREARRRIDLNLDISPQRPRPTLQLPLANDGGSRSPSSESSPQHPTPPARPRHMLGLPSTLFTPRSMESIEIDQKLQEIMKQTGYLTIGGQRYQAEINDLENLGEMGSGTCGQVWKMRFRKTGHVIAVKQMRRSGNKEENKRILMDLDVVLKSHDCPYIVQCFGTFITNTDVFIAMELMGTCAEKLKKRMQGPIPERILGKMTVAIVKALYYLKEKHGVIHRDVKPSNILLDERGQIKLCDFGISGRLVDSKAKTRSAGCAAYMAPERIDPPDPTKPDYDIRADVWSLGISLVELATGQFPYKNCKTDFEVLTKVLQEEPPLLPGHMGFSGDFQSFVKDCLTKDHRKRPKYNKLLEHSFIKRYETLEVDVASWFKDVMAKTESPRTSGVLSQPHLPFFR

PIM3 = PIM3 (Homo sapiens, UniProt Q86V86); assay: biochemical
Erk3 = Erk3 (Homo sapiens, UniProt Q16659); assay: biochemical
EpHA3 = EpHA3 (Homo sapiens, UniProt P29320); assay: NanoBRET target engagement; assay type: cell-based
EpHA5 = EpHA5 (Homo sapiens, UniProt P54756); assay: NanoBRET target engagement; assay type: cell-based
EpHB3 = EpHB3 (Homo sapiens, UniProt P54753); assay: NanoBRET target engagement; assay type: cell-based
EpHB2 = EpHB2 (Homo sapiens, UniProt P29323); assay: NanoBRET target engagement; assay type: cell-based
Chain of EpHB2 (P29323 19-1055): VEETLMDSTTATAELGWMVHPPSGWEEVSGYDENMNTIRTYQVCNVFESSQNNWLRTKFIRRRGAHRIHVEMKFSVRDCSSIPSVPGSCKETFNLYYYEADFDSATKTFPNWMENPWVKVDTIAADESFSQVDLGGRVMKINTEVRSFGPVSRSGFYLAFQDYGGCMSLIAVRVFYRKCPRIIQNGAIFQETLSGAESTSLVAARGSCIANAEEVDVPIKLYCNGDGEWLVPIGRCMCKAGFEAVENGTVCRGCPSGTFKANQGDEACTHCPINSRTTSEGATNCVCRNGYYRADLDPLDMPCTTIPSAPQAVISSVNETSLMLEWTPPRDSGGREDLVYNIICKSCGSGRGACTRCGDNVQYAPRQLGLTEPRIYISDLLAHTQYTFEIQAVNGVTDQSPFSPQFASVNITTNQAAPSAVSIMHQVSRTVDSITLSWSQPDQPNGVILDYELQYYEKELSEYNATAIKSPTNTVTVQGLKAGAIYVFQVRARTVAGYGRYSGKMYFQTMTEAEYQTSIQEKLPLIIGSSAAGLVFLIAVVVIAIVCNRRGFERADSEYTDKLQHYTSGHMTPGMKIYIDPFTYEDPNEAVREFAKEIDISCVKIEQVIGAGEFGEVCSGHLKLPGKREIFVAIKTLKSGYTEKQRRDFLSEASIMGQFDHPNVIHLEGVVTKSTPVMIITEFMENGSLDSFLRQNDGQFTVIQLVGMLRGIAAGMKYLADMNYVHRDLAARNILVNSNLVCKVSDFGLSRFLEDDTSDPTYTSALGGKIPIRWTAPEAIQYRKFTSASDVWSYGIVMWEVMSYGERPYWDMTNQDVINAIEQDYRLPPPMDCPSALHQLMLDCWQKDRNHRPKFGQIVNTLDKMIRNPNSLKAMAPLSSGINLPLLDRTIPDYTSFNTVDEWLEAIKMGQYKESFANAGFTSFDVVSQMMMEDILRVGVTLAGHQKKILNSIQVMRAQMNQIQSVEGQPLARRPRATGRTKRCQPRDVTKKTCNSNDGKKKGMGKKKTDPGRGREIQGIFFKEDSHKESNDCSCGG

ABL1 = ABL1 (Homo sapiens, UniProt P00519); assay: NanoBRET target engagement; assay type: cell-based
Chain of ABL1 (P00519 whole entry): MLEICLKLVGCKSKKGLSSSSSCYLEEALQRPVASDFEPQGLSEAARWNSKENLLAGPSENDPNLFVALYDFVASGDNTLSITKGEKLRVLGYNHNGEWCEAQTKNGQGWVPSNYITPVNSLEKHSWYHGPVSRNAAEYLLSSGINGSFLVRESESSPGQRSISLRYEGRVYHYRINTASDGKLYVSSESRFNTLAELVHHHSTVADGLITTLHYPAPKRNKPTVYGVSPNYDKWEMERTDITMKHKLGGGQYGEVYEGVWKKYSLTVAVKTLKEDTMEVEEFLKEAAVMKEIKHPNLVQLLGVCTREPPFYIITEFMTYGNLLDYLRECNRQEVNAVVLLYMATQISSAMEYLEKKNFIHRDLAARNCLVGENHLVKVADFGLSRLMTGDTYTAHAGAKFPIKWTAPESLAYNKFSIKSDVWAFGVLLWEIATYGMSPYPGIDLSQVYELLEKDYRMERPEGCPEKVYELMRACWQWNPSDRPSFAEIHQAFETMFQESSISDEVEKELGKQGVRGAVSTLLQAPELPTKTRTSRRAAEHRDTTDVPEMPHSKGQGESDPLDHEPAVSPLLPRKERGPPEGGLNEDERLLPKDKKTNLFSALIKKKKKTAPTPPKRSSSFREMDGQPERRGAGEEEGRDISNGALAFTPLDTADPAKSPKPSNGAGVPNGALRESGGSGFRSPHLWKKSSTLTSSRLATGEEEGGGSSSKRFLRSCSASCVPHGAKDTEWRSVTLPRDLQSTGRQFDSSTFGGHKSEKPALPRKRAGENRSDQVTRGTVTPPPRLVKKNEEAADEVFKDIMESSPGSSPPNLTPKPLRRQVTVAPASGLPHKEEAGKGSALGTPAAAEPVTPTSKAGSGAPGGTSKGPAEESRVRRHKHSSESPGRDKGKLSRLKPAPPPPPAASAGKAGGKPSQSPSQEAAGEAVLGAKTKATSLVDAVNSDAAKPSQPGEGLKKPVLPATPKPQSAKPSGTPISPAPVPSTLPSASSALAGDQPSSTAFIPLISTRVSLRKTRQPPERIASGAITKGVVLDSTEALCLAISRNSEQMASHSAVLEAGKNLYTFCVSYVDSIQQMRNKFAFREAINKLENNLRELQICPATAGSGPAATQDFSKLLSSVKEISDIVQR

EpHA4 = EpHA4 (Homo sapiens, UniProt P54764); assay: NanoBRET target engagement; assay type: cell-based
Chain of EpHA4 (P54764 20-986): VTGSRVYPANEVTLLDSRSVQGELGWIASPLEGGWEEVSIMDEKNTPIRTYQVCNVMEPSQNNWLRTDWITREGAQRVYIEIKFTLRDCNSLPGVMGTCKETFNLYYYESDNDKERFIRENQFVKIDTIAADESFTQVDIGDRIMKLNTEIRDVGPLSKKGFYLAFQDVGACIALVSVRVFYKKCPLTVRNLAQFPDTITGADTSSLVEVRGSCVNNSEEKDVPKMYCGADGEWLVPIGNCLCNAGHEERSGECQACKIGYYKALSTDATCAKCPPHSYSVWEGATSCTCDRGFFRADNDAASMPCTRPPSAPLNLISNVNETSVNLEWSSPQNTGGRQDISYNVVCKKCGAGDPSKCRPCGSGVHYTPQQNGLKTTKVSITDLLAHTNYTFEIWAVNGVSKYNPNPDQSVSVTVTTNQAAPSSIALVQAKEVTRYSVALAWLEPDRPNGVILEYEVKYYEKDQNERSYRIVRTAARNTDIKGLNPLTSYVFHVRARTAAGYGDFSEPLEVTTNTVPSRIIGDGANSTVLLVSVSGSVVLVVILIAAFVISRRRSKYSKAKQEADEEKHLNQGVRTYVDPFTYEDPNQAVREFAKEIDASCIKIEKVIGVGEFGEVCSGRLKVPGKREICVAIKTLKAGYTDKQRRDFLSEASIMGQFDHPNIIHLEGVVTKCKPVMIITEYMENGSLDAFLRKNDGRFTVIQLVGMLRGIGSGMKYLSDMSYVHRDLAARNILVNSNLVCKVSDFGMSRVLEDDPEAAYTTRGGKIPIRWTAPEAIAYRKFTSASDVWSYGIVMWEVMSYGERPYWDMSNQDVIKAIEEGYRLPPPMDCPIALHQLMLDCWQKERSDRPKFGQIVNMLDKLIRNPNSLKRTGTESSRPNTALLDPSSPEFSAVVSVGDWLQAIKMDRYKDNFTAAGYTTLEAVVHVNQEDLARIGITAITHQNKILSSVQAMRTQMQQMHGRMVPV

EpHA2 = EpHA2 (Homo sapiens, UniProt P29317); assay: NanoBRET target engagement; assay type: cell-based
Chain of EpHA2 (P29317 24-976): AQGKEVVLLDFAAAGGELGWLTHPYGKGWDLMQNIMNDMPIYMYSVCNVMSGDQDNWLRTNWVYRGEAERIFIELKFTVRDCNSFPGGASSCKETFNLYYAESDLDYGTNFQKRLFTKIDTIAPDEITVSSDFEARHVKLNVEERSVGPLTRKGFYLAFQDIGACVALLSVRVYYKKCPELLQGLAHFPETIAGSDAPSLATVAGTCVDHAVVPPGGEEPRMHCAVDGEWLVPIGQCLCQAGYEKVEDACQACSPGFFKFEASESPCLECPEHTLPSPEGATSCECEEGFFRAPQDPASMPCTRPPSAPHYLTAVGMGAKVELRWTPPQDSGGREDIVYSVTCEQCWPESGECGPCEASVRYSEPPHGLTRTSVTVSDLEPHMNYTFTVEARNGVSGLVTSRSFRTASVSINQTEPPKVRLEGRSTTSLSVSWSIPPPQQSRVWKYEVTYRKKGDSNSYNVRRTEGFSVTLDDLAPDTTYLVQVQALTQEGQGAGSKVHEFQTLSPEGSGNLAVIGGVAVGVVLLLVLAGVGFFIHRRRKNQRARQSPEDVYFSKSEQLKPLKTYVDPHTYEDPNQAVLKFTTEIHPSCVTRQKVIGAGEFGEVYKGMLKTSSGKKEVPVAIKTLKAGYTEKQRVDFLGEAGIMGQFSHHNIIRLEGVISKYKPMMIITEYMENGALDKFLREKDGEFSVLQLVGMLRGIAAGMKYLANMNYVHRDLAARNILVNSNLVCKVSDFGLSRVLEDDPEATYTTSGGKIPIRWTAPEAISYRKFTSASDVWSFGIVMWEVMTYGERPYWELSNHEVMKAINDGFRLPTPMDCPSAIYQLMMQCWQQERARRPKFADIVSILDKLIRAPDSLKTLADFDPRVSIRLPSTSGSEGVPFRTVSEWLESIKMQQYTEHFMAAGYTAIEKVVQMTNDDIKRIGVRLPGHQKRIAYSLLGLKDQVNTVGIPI

MSSK1 = MSSK1 (Homo sapiens, UniProt Q9UPE1); assay: biochemical
Chain of MSSK1 (Q9UPE1 whole entry): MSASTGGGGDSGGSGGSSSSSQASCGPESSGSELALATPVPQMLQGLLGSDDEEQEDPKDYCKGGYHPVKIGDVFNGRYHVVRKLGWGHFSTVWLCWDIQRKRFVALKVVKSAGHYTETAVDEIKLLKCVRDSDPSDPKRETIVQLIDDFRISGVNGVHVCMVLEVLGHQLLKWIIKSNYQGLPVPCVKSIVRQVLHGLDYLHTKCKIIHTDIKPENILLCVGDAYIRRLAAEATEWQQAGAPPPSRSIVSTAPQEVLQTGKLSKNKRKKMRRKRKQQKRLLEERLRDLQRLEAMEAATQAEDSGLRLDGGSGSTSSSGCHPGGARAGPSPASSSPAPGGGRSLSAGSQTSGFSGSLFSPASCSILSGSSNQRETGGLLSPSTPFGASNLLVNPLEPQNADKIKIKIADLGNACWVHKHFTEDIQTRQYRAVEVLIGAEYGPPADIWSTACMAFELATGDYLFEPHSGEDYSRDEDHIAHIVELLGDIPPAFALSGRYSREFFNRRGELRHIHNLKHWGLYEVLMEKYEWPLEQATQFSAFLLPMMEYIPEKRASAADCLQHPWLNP

SMILES: CNc1ncc2cc(-c3cc(Cl)ccc3Br)c(=O)n(CCCCN)c2n1 [compound 10, 8-(4-Aminobutyl)-6-(2-bromo-5-chlorophenyl)-2-(methylamino)pyrido[2,3-d]pyrimidin-7(8H)-one]
- ΔTm at 10 µM (BRPF1; read-out: dTm 10): -0.3 °C
- ΔTm at 10 µM (DRAK2; read-out: dTm 10): 0.1 °C
- ΔTm at 10 µM (MAP2K7; read-out: dTm 10): 0.4 °C
- ΔTm at 10 µM (PIM3; read-out: dTm 10): 0.8 °C

SMILES: CNc1ncc2cc(-c3ccc(-c4cccc(C)n4)cc3Cl)c(=O)n(CC3OCC(N)CO3)c2n1 (centres unmarked) [compound 2, G-5555]
- dTm G-5555 (2) (Erk3; 10 µM, binder): 0.3 °C

SMILES: CNc1ncc2cc(-c3cc(Cl)ccc3Cl)c(=O)n(CCCCN)c2n1 [compound 8, 8-(4-Aminobutyl)-6-(2,5-dichlorophenyl)-2-(methylamino)pyrido[2,3-d]pyrimidin-7(8H)-one]
- IC50 (EpHA3): > 1 µM
- IC50 (EpHA5): > 1 µM
- IC50 (EpHB3): > 1 µM
- IC50 (EpHB2): > 1 µM
- IC50 (ABL1): > 1 µM
- IC50 (EpHA4): 0.346 ± 0.001 µM
- IC50 (EpHA2): > 1 µM
- ΔTm at 10 µM (BRPF1; read-out: dTm 8): -0.5 °C
- ΔTm at 10 µM (DRAK2; read-out: dTm 8): 0.1 °C
- ΔTm at 10 µM (MAP2K7; read-out: dTm 8): 0.6 °C
- ΔTm at 10 µM (PIM3; read-out: dTm 8): 1 °C

SMILES: CNc1ncc2cc(-c3cc(F)ccc3F)c(=O)n(CCCCN)c2n1 [compound 5, 8-(4-Aminobutyl)-6-(2,5-difluorophenyl)-2-(methylamino)pyrido[2,3-d]pyrimidin-7(8H)-one]
- ΔTm at 10 µM (Erk3; read-out: dTm MR22 (5)): 0.5 °C
- ΔTm at 10 µM (MSSK1; read-out: dTm MR22 (5)): -0.1 °C

SMILES: CNc1ncc2cc(-c3ccccc3Cl)c(=O)n(CCCCN)c2n1 [compound 4, 8-(4-Aminobutyl)-6-(2-chlorophenyl)-2-(methylamino)pyrido[2,3-d]pyrimidin-7(8H)-one]
- IC50 (EpHA3): 0.313 ± 0.121 µM
- IC50 (EpHA5): 0.928 ± 0.006 µM
- IC50 (EpHB3): > 1 µM
- IC50 (EpHB2): > 1 µM
- IC50 (ABL1): > 1 µM
- IC50 (EpHA4): 0.066 ± 0.038 µM
- IC50 (EpHA2): 0.21 ± 0.036 µM
- ΔTm at 10 µM (MSSK1; read-out: dTm MR21 (4)): 0.2 °C

SMILES: CNc1ncc2cc(-c3cc(C(F)(F)F)ccc3Cl)c(=O)n(CCCCN)c2n1 [compound 9, 8-(4-Aminobutyl)-6-(2-chloro-5-(trifluoromethyl)phenyl)-2-(methylamino)pyrido[2,3-d]pyrimidin-7(8H)-one]
- ΔTm at 10 µM (BRPF1; read-out: dTm 9): -0.4 °C
- ΔTm at 10 µM (DRAK2; read-out: dTm 9): 0 °C
- ΔTm at 10 µM (MAP2K7; read-out: dTm 9): 0.4 °C
- ΔTm at 10 µM (PIM3; read-out: dTm 9): 0.4 °C

SMILES: CNc1ncc2cc(-c3cc(Br)ccc3Br)c(=O)n(CCCCN)c2n1 [compound 11, 8-(4-Aminobutyl)-6-(2,5-dibromophenyl)-2-(methylamino)pyrido[2,3-d]pyrimidin-7(8H)-one]
- ΔTm at 10 µM (BRPF1; read-out: dTm 11): -0.7 °C
- ΔTm at 10 µM (DRAK2; read-out: dTm 11): 0 °C
- ΔTm at 10 µM (MAP2K7; read-out: dTm 11): 0.5 °C
- ΔTm at 10 µM (PIM3; read-out: dTm 11): 0.9 °C

SMILES: CNc1ncc2cc(-c3cc(F)c(-c4cccc(C)n4)cc3F)c(=O)n(CCCCN)c2n1 [compound 12, 8-(4-Aminobutyl)-6-(2,5-difluoro-4-(6-methylpyridin-2-yl)phenyl)-2-(methylamino)pyrido[2,3-d]pyrimidin-7(8H)-one]
- ΔTm at 10 µM (BRPF1; read-out: dTm 12): -1.5 °C
- ΔTm at 10 µM (DRAK2; read-out: dTm 12): 5.7 °C
- ΔTm at 10 µM (MAP2K7; read-out: dTm 12): 1.7 °C
- ΔTm at 10 µM (PIM3; read-out: dTm 12): -1.2 °C
